What all share (assay type): cell-based, Nicotiana tabacum
In assay [1] the test system is tobacco protoplasts. Put plainly: Transient expression transport assay: secretion index and total activity of α-amylase cargo molecules. The source says: (§1) Tobacco leaf protoplasts were electroporated as described (Denecke and Vitale, 1995), and plasmid concentrations used are given in the figure legends. Harvesting of cells and culture medium as well as the enzymatic assays were done as described previously (Denecke and Vitale, 1995; Crofts et al., 1999; Leborgne-Castel et al., 1999). Equal volumes of cells and medium were loaded on protein gel blots or analysed via enzymatic assays to determine the fraction of the marker proteins inside and outside of the cells and to calculate the secretion index (Denecke et al., 1990). Membrane recruitment was assessed by an osmotic shock procedure described previously (Denecke et al., 1990; Denecke et al., 1992).
Protoplasts were extracted in α-amylase extraction buffer (Crofts et al., 1999) via sonication for 5 seconds. In all cases, extracts were cleared by 10 min centrifugation at 2500 g at 4° C. and the supernatant was recovered. α-amylase activity was determined as described (Crofts et al., 1999).
It is established that the molecular target of BFA is the guanosine nucleotide exchange factor for ARF1p, resulting in a stabilisation of an abortive complex with the GDP-bound form of ARF1p at the Golgi membrane. To test if inhibition of retrograde and anterograde transport can be dissected, we decided to utilise the secreted cargo molecule α-amylase (amy) and its derivative carrying an ER retention signal (amy-HDEL), which permits a quantitative analysis of transport rates in tobacco leaf protoplasts (FIGS. 1-6). We have shown before that the secretion index (SI), the ratio between extra- and intracellular activities, provides a simple way to compare relative transport rates at a defined time-point. In addition, amy and amy-HDEL have identical specific enzyme activity and stability throughout the secretory pathway. While both molecules are expected to have identical ER export properties (FIG. 16, route 1), only amy-HDEL can undergo retrograde transport from the Golgi (FIG. 16, route 2). If saturation of the HDEL receptor occurs, amy-HDEL is expected to reach the cell surface in the same manner as amy (FIG. 16, routes 3 and 7). We now tested the influence of different concentrations of BFA on the transport of either cargo molecules via transient gene expression in tobacco protoplasts. […] This effect is less obvious for amy-HDEL.

Assay [2] concerns stably transformed tobacco cells. The experiment in a line: Transport time course in protoplasts from stably transformed tobacco cells incubated with BFA. The settings on record: stable transformants, 30 μg/ml BFA, 240 minute period (FIG. 18). Here is the method:
The experiment shown in FIG. 17 was conducted using a standard transient expression assay with a 24-hour incubation period. This is a long time-period and it is possible that prolonged inhibition of the recycling of essential COPII vesicle budding components leads eventually to an inhibition of anterograde transport. […] To test this, we have carried out a transport experiment in which stably transformed tobacco cells were incubated for different time-periods in the presence of BFA. Under these circumstances, protoplasts contain a steady state level of amy or amy-HDEL from the very beginning of the experiment. This steady state level is very high for amy-HDEL, thus secretion of the cargo into the medium should be detected with high sensitivity if BFA first inhibits […] retrograde transport while COPII anterograde transport is still efficient. […] It was not possible to detect a transient induction of amy-HDEL secretion prior to the inhibition of amy secretion.

The test system of assay [3] is tobacco protoplasts. Put plainly: Transient expression transport assay for phytepsin, read by protein gel blot of medium and cells. The note with it: increasing BFA concentration (FIG. 22).
Description: Transient expression experiment showing the influence of BFA (indicated above each lane in μg/ml final concentration) on secretion to the medium (M), intracellular retention (C) and the partitioning between processed (closed arrows) and un-processed (open arrows) forms of phyteposin. Note that BFA inhibits both secretion and intracellular processing of phytepsin.
as §1
Samples were loaded after twofold dilution with 2×SDS-PAGE loading buffer (200 mM Tris-Cl, pH 8.8, 5 mM EDTA, 1 M sucrose, and 0.1% bromophenol blue). Proteins in SDS-polyacrylamide gels were transferred onto a nitrocellulose membrane and then blocked with PBS, 0.5% Tween 20, and 5% milk powder for 1 hr. […]

Setting [4] is: 24-hour incubation, increasing BFA concentration (FIG. 17).

Turning to `C[C@H]1CCC/C=C/[C@@H]2C[C@H](O)C[C@H]2[C@H](O)/C=C/C(=O)O1` [BFA, Brefeldin A], the “total activity (medium+cells) of amy-HDEL” value with tobacco protoplasts [1] (24-hour incubation, BFA present (FIG. 17 lower panel)) is reported as “slightly increased total activity for amy-HDEL”. In the assay on tobacco protoplasts [1] (24-hour incubation, BFA treatment (FIG. 17)), the “total amount of α-amylase (amy) produced (medium+cells)” value is “reduction in the total amount of α-amylase”. In the assay on tobacco protoplasts [1] (setting [4]), the “secretion of amy-HDEL, secretion index” value is reported as “hardly influenced by the drug” and the “secretion of α-amylase (amy), secretion index” value is listed as “concentration-dependent inhibition of α-amylase secretion”. Further, the “secretion of amy-spo to the medium” value in the assay with tobacco protoplasts [1] (increasing BFA concentration (FIG. 25B)) is given as “does not induce secretion of the cargo molecule”. In addition, in assay [2], the “secretion of amy, secretion index over time” value is recorded as “only inhibits the secretion of amy”; the “secretion of amy-HDEL, secretion index over time” value is “slightly induced after prolonged incubation (80 minutes and more)”. Besides, in the assay with tobacco protoplasts [3], the “intracellular processing of the phytepsin precursor” value is listed as “inhibits processing of the phytepsin precursor” and the “secretion of phytepsin precursor to the medium” value was “secretion was inhibited at the lowest concentration of BFA used”.

The values are drawn from US20050019855A1, “Methods to increase the productivity of meterologous gene expression” (priority 2001, published 2005).
